Tests used:
[1] = Stability of the crystalline form (purity under accelerated, intermediate and long-term storage); assay type: physicochemical
[2] = Hygroscopicity (sorption isotherm curve); assay type: physicochemical; details: at 80% RH
Text: According to the description of the hygroscopicity characteristics and the definition of hygroscopic weight gain in the Chinese Pharmacopoeia 2020 Edition, Volume IV, General Chapter 9103: Guidelines for Hygroscopicity Trials for Pharmaceuticals, • deliquescence: absorbing enough moisture to form a liquid; • extremely hygroscopic: a hygroscopic weight gain of not less than 15%; • hygroscopic: a hygroscopic weight gain of less than 15% but no less than 2%; • slightly hygroscopic: a hygroscopic weight gain of less than 2% but no less than 0.2%; and • non-hygroscopic or practically non-hygroscopic: a hygroscopic weight gain of less than 0.2%.

[3] = Pharmacokinetic test in rats; assay type: in vivo, SD rats
Experimental: Experimental objective: in this experiment, a single dose of the test substance was administered to SD rats intravenously and intragastrically, and the concentration of the test substance in plasma of the rats was measured to evaluate the pharmacokinetic characteristics of the test substance in the rats. Experimental animals: male SD rats, 200-250 g, 6-8 weeks old, 6 rats/compound, purchased from Chengdu Dossy Experimental Animals Co., Ltd. Experimental method: on the day of the experiment, 6 SD rats were randomly grouped according to their body weights. […] Sampling: before and after the administration, 0.15 mL of blood was taken from the orbits under isoflurane anesthesia and placed in an EDTAK2 centrifuge tube. Centrifugation was carried out at 5000 rpm at 4°C for 10 min, and the plasma was collected. The plasma collection time points for IV&PO groups were 0, 5 min, 15 min, 30 min, 1 h, 2 h, 4 h, 6 h, 8 h, and 24 h. Before analysis and detection, all samples were stored at -60°C. The samples were analyzed quantitatively by LC-MS/MS.

Caco-2 cells = details: Caco2, compared with the trifluoroacetate of LNP023; in words
Experimental: (§1) In the experiment, a monolayer of Caco-2 cells was used, and incubated in triplicate in a 96-well Transwell plate. A transport buffer solution (HBSS, 10 mM HEPES, pH 7.4 ± 0.05) containing the compound of the present invention (2 µM) or the control compound digoxin (10 µM), nadolol (2 µM) or metoprolol (2 µM) was added to the administration end hole on the apical side or basal side. A DMSO-containing transport buffer solution was added to the corresponding receiving end hole. After incubation for 2 hours at 37°C ± 1°C, the cell plate was removed, and an appropriate amount of samples was taken from both the apical side and basal side and transferred to a new 96-well plate. Subsequently, acetonitrile containing an internal standard was added to precipitate the protein. The samples were analyzed using LC MS/MS, and the concentrations of the compound of the present invention and the control compound were determined. Concentration data were used to calculate apparent permeability coefficients for transport from the apical side to the basal side, and from the basal side to the apical side of the cell monolayer, and thus to calculate the efflux ratio. The integrity of the cell monolayer after 2 hours of incubation was evaluated by leakage of Lucifer Yellow.

[4] = Pharmacokinetic test in monkeys; assay type: in vivo, cynomolgus monkeys; details: compared with the trifluoroacetate of LNP023, in words
Experimental: Experimental objective: in this experiment, a single dose of test substance was administered to cynomolgus monkeys intravenously and intragastrically, and the concentration of the test substance in plasma of the monkeys was measured to evaluate the pharmacokinetic characteristics of the test substance in the monkeys.
Experimental animals: male cynomolgus monkeys, 3-5 kg, 3-6 years old, 6 monkeys/compound, purchased from Suzhou Xishan Biotechnology Co., Ltd.
Experimental method: on the day of the experiment, 6 monkeys were randomly grouped according to their body weights. The cynomolgus monkeys were fasted with water available for 14-18 h one day before the administration, and were fed 4 h after the administration.
Sampling: before and after the administration, 1.0 mL of blood was taken from the limb veins and placed in an EDTAK2 centrifuge tube. Centrifugation was carried out at 5000 rpm at 4°C for 10 min, and the plasma was collected.
The plasma collection time points for IV&PO groups were 0, 5 min, 15 min, 30 min, 1 h, 2 h, 4 h, 6 h, 8 h, 10 h, 12 h, and 24 h.
Before analysis and detection, all samples were stored at -60°C. The samples were analyzed quantitatively by LC-MS/MS.

in vitro = details: human, Caco-2, pH 7.4
Experimental: as §1

complement factor B = complement factor B (Homo sapiens, UniProt P00751); details: in words; disclosed in PCT/CN 2022/113216; cited from earlier work
C3a level = details: in words; disclosed in PCT/CN 2022/113216; cited from earlier work
[5] = male, rat, po, SD rats, plasma, i.g. (10 mg/kg)
[6] = in rats, compared with LNP023, in words

complement factor B, sequence (P00751 26-764): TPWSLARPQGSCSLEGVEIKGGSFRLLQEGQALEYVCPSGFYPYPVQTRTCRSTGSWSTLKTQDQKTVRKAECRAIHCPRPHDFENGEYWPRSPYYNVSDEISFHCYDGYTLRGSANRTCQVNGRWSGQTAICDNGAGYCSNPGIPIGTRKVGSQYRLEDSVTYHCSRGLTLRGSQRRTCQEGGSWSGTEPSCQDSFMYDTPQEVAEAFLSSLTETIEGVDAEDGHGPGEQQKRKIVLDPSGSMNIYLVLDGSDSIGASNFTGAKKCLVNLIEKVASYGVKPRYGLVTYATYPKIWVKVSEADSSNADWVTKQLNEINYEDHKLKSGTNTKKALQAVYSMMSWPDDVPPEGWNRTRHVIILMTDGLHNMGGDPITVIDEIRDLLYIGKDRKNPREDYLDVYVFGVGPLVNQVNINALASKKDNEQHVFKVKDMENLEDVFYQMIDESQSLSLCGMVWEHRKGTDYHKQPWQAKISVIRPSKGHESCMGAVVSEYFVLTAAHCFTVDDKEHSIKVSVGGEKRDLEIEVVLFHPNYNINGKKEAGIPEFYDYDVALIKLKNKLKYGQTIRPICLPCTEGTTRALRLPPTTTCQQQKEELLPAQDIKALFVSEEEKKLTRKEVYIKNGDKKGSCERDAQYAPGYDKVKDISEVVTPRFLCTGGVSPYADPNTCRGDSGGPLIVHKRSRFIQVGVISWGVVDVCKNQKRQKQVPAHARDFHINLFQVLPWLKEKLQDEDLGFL

Question: With [2H]C([2H])([2H])Oc1cc(C)c2[nH]ccc2c1CN1CC[C@@H](C2CC2)C[C@H]1c1ccc(C(=O)O)cc1 [4-((2S,4R)-4-cyclopropyl-1-((5-(methoxy-d3)-7-methyl-1H-indol-4-yl)methyl)piperidin-2-yl)benzoic acid] as the molecule, how does the Purity ([1]; 0 day) read?
Answer: 97.80%

Question: And the Purity ([1]; Accelerated: 40°C ± 2°C, 75% ± 5% RH, 1 month)?
Answer: 97.70%

Question: And the Purity ([1]; Accelerated: 40°C ± 2°C, 75% ± 5% RH, 2 months)?
Answer: 97.70%

Question: What about the Purity ([1]; Accelerated: 40°C ± 2°C, 75% ± 5% RH, 3 months) of the same molecule?
Answer: 97.90%

Question: What about the Purity ([1]; Accelerated: 40°C ± 2°C, 75% ± 5% RH, 6 months) of the same molecule?
Answer: 97.80%

Question: And the Purity ([1]; Intermediate: 25°C ± 2°C, 60% ± 5% RH, 3 months)?
Answer: 98.00%

Question: What about the Purity ([1]; Intermediate: 25°C ± 2°C, 60% ± 5% RH, 6 months) of the same molecule?
Answer: 97.80%

Question: What about the Purity ([1]; Long-term: 2°C - 8°C, 3 months) of the same molecule?
Answer: 97.90%

Question: What about the Purity ([1]; Long-term: 2°C - 8°C, 6 months) of the same molecule?
Answer: 97.70%

Question: And the stability ([1]; under accelerated, intermediate and long-term conditions, conclusion in words)?
Answer: good stability

Question: And the hygroscopic weight gain [2]?
Answer: about 1.15%

Question: Which bioavailability ([3]; male, rat, plasma, po, SD rats, i.g. (10 mg/kg)) does the source give for CCO[C@H]1CCN(Cc2c(OC)cc(C)c3[nH]ccc23)[C@H](c2ccc(C(=O)O)cc2)C1 [LNP023] here?
Answer: 49%

Question: And the Cmax [3, 5]?
Answer: 867 ng/mL

Question: And the Tmax [3, 5]?
Answer: 3.5 h

Question: And the half-life [3, 5]?
Answer: 3.39 h

Question: What about the AUC(0-t) ([3]; male, rat, po, SD rats, plasma, i.g. (10 mg/kg), read-out: AUC0-24h) of the same molecule?
Answer: 9870 ng·h/mL

Question: What does the source list for [2H]C([2H])([2H])Oc1cc(C)c2[nH]ccc2c1CN1CC[C@@H](C2CC2)C[C@H]1c1ccc(C(=O)O)cc1 [Trifluoroacetate of compound 1, 4-((2S,4R)-4-cyclopropyl-1-((5-(methoxy-d3)-7-methyl-1H-indol-4-yl)methyl)piperidin-2-yl)benzoic acid]?
Answer: maximum plasma concentration [3, 6]: higher; oral bioavailability [3, 6]: higher; permeability (Caco-2 cells): better; bioavailability [4]: higher; oral exposure [4]: higher; Papp A→B at 2 h, 2 µM (in vitro): 1.77 ×10⁻⁶ cm/s; Papp B→A at 2 h, 2 µM (in vitro): 19.4 ×10⁻⁶ cm/s

Question: Which results are given for [2H]C([2H])([2H])Oc1cc(C)c2[nH]ccc2c1CN1CC[C@@H](C2CC2)C[C@H]1c1ccc(C(=O)O)cc1 [compound 1, 4-((2S,4R)-4-cyclopropyl-1-((5-(methoxy-d3)-7-methyl-1H-indol-4-yl)methyl)piperidin-2-yl)benzoic acid]?
Answer: inhibitory activity against complement factor B (complement factor B): good; inhibition rate of C3a level in vivo (C3a level): good
